{"source": "patent US6191117A", "about": "“Methods of producing weight loss and treatment of obesity” (priority 2000, dated 2001)", "origin": "cited, not measured here", "key": {"epileptic patients [1]": {"tested_on": "epileptic patients"}, "[2]": {"tested_on": "patients treated for epilepsy"}, "epileptic patients [3]": {"tested_on": "epileptic patients", "details": "human, in vivo"}, "young healthy adults": {"tested_on": "young healthy adults", "details": "acute doses and 2- and 4-week test periods"}, "carbonic anhydrase CA-IV": {"tested_on": "carbonic anhydrase CA-IV", "details": "compared with acetozolamide"}, "cerebral GABA": {"tested_on": "cerebral GABA", "details": "within three hours of oral administration"}, "carbonic anhydrase CA-II": {"tested_on": "carbonic anhydrase CA-II", "details": "compared with acetozolamide"}, "seizure patients": {"tested_on": "seizure patients", "details": "for patients with weight decrease: adjunctive therapy, control 3%"}, "[4]": {"details": "another study, epileptic patients"}, "[5]": {"details": "clinical trials on seizure patients"}}, "note": "“Also recorded” adds a separate entry of the source. Read-outs that look alike come from different tables or passages of the source."}
{"molecule": "NC(=O)OCC(COC(N)=O)c1ccccc1", "note": "[FBM]", "values": [{"measurement": "interaction at L-type calcium channels", "setting": "L-type calcium channels", "result": "an interaction at the L-type calcium channels"}, {"measurement": "action on GABA", "setting": "GABA receptor", "result": "facilitation of the GABA receptor"}, {"measurement": "aplastic anemia and hepatic failure, 1994 reports", "setting": "epileptic patients [1]; 1994 reports", "result": "causing aplastic anemia and hepatic failure"}, {"measurement": "thrombocytopenia and neutropenia", "setting": "epileptic patients [1]; add-on therapy, Lennox-Gestalt Syndrome, prior to FDA approval", "result": "Several mild cases of thrombocytopenia and neutropenia"}, {"measurement": "aplastic anemia or hepatic dysfunction after FDA warning", "setting": "epileptic patients [1]; adjunctive FBM, refractory epilepsy, serum levels monitored", "result": "No cases of aplastic anemia or hepatic dysfunction"}, {"measurement": "safety of long usage", "setting": "epileptic patients [1]; adjunctive therapy, at least one year", "result": "relatively safe after usage for at least one year"}, {"measurement": "aplastic anemia or hepatic dysfunction prior to approval", "setting": "epileptic patients [1]; prior to drug approval", "result": "no reported cases of aplastic anemia or hepatic dysfunction"}, {"measurement": "aplastic anemia attributable to FBM monotherapy", "setting": "epileptic patients [1]; recent analysis", "result": "only several cases of aplastic anemia"}, {"measurement": "drug interactions", "setting": "epileptic patients [1]; with other antiepileptic drugs", "result": "elevation of dilantin, depakote, phenobarbitol levels and the toxic epoxide metabolite of tegretol"}, {"measurement": "action on sodium channel", "setting": "sodium channel", "result": "modulation of the Na++ channel conductance"}, {"measurement": "weight loss", "setting": "[2]; FBM monotherapy, non-obese patients", "result": 5, "unit": "%"}, {"measurement": "course of weight loss", "setting": "[2]; add-on therapy, partial epilepsy, non-obese patients", "result": "transient and returned to baseline after twenty weeks"}, {"measurement": "anorexia and weight loss", "setting": "[2]; patients treated for epilepsy", "result": "induce anorexia and weight loss"}, {"measurement": "cognition and fine motor function", "setting": "epileptic patients [3]", "result": "increase both cognition and fine motor function"}, {"measurement": "activity at the NMDA receptor", "setting": "NMDA receptor", "result": "glycine site NMDA antagonist"}, {"measurement": "activity at the kainate/AMPA receptor", "setting": "kainate/AMPA receptor", "result": "interaction at the kainate/AMPA receptor"}]}
{"molecule": "CC1(C)O[C@@H]2[C@@H](CO[C@@]3(COS(N)(=O)=O)OC(C)(C)O[C@@H]23)O1", "note": "[TPM, 2,3:4,5-DI-O-isolpropylidene-B-D-fructopyranose sulfamate]", "values": [{"measurement": "action on GABA", "setting": "GABA receptor", "result": "potentiation of the effects of GABA"}, {"measurement": "carbonic anhydrase inhibition", "setting": "carbonic anhydrase", "result": "weak carbonic anhydrase inhibitor"}, {"measurement": "effect on urinary citrate excretion and urinary pH", "setting": "carbonic anhydrase", "result": "reducing urinary citrate excretion and by increasing urinary pH"}, {"measurement": "attention and word fluency", "setting": "young healthy adults", "result": "statistically significant declines on measures of attention and word fluency"}, {"measurement": "inhibition of CA-IV", "setting": "carbonic anhydrase CA-IV", "result": "weaker than that of acetozolamide"}, {"measurement": "brain levels of cerebral GABA", "setting": "cerebral GABA", "result": "acutely increase brain levels of cerebral GABA"}, {"measurement": "action on sodium channel", "setting": "sodium channel", "result": "voltage-sensitive sodium channel blocking action"}, {"measurement": "inhibition of CA-II", "setting": "carbonic anhydrase CA-II", "result": "weaker than that of acetozolamide"}, {"measurement": "patients with weight decrease", "setting": "seizure patients; 200-400 mg/day", "result": 9, "unit": "%"}, {"measurement": "patients with weight decrease", "setting": "seizure patients; 600-1,000 mg/day", "result": 13, "unit": "%"}, {"measurement": "weight loss with valproate or valproate plus carbamazepine co-treatment", "setting": "seizure patients; also treated with valproate, or valproate with carbamazepine", "result": "tended to be higher"}, {"measurement": "amount of weight increase", "setting": "seizure patients; another study, 2/12 patients", "result": "12-25 pounds"}, {"measurement": "amount of weight loss", "setting": "seizure patients; another study, 5/12 patients", "result": "12-42 pounds"}, {"measurement": "patients with weight increase", "setting": "seizure patients; [4]", "result": "2/12"}, {"measurement": "patients with weight loss", "setting": "seizure patients; [4]", "result": "5/12"}, {"measurement": "average decline from baseline weight", "setting": "seizure patients; [5]", "result": "2-8%"}, {"measurement": "average weight loss", "setting": "seizure patients; [5]", "result": "2 to 8", "unit": "kg"}, {"measurement": "report of anorexia in patients with weight loss", "setting": "seizure patients; human, in vivo", "result": "more likely to report anorexia or loss of appetite"}, {"measurement": "time to peak of weight loss", "setting": "seizure patients; human, in vivo", "result": "12-15 months"}, {"measurement": "body weight after prolonged therapy", "setting": "seizure patients; prolonged therapy", "result": "gradually returning toward pre-topiramate levels"}, {"measurement": "patients with weight loss, long-term study", "setting": "seizure patients; treated for up to 2.2 years", "result": 26, "unit": "%"}, {"measurement": "dose dependence of common adverse events", "setting": "patients with seizures; 200 to 400 mg/day", "result": "did not appear to be dose-related"}, {"measurement": "discontinuation due to adverse events", "setting": "patients with seizures; 200 to 400 mg/day adjunctive therapy", "result": 11, "unit": "%"}, {"measurement": "common adverse events, controlled trials", "setting": "patients with seizures; 200 to 400 mg/day, adults", "result": "somnolence, dizziness, ataxia, speech disorders and related speech problems, psychomotor slowing, abnormal vision, difficulty with memory, paresthesia and diplopia"}, {"measurement": "most common dose-related adverse events", "setting": "patients with seizures; 200 to 1,000 mg/day", "result": "fatigue, nervousness, difficulty with concentration or attention, confusion, depression, anorexia, language problems, anxiety, mood problems, and weight decrease"}, {"measurement": "course of adverse events", "setting": "patients with seizures; 200 to 1,000 mg/day, rapid dose titration of 200 mg/day", "result": "abated after 4 months of treatment"}, {"measurement": "renal calculi incidence relative to similar untreated population", "setting": "patients with seizures; about, expected in a similar, untreated population", "result": "2-4 times"}, {"measurement": "nonspecific CNS effects occasionally observed", "setting": "patients with seizures; add-on therapy", "result": "dizziness or imbalance, confusion, memory problems, and exacerbation of mood disturbances (i.e., irritability and depression)"}, {"measurement": "renal calculi (kidney stones) incidence", "setting": "patients with seizures; adults", "result": 1.5, "unit": "%"}, {"measurement": "severity of somnolence and fatigue", "setting": "patients with seizures; clinical trials, early in therapy", "result": "generally mild to moderate"}, {"measurement": "dose dependence of fatigue incidence", "setting": "patients with seizures; dosages above 400 mg/day", "result": "increases at dosages above 400 mg/day"}, {"measurement": "central nervous system adverse events", "setting": "patients with seizures; human, in vivo", "result": "psychomotor slowing, difficulty with concentration, and speech or language problems, in particular, word-finding difficulty and somnolence and/or fatigue"}, {"measurement": "correlation of plasma concentrations with adverse events", "setting": "patients with seizures; human, in vivo", "result": "not correlated with the occurrence of adverse events"}, {"measurement": "dose dependence of somnolence incidence", "setting": "patients with seizures; human, in vivo", "result": "does not appear to be dose-related"}, {"measurement": "adverse events associated with discontinuing therapy", "setting": "patients with seizures; increased at dosages above 400 mg/day", "result": "somnolence, dizziness, anxiety, difficulty with concentration or attention, fatigue, and paresthesia"}, {"measurement": "post-marketing adverse experiences", "setting": "patients with seizures; post-marketing data", "result": "hepatic failure, hepatitis, pancreatitis, and renal tubular acidosis"}, {"measurement": "bound to human plasma proteins", "setting": "human plasma proteins; 1-250 μg/ml", "result": "13-17%"}, {"measurement": "plasma protein binding", "setting": "human plasma proteins; concentration not given", "result": "approximately 15%"}, {"measurement": "time to peak (TTP) plasma concentrations", "setting": "400 mg dose", "result": "about 2 hours"}, {"measurement": "dose recovered in urine", "setting": "100-mg dose", "result": "81-95%"}, {"measurement": "linearity of pharmacokinetics", "setting": "200 to 800 mg/day", "result": "linear with dose proportional increases in plasma concentration"}, {"measurement": "route of elimination", "setting": "TPM and its metabolites", "result": "predominantly renal"}, {"measurement": "increase of plasma concentrations", "setting": "hepatic impairment", "result": 29, "unit": "%"}, {"measurement": "clearance in hepatically impaired subjects", "setting": "hepatically impaired subjects", "result": "may be decreased"}, {"measurement": "extent of metabolism", "setting": "in vivo", "result": "not extensively metabolized"}, {"measurement": "metabolites identified in humans", "setting": "in vivo", "result": "Six metabolites"}, {"measurement": "renal tubular reabsorption", "setting": "in vivo", "result": "evidence of renal tubular reabsorption"}, {"measurement": "routes of metabolite formation", "setting": "in vivo", "result": "hydroxylation, hydrolysis, and glucuronidation"}, {"measurement": "plasma levels in moderate or severe renal impairment", "setting": "moderate or severe renal impairment", "result": "plasma levels are increased"}, {"measurement": "reduction of clearance", "setting": "moderate renal impairment (creatinine clearance 30-69 mL/min/1.73 m^2) vs normal", "result": 42, "unit": "%"}, {"measurement": "eliminated unchanged in the urine", "setting": "of an administered dose", "result": "approximately 70%"}, {"measurement": "absorption", "setting": "oral", "result": "rapid; also recorded: nearly complete"}, {"measurement": "elimination half-life", "setting": "patients with normal renal function", "result": "20 to 30", "unit": "h"}, {"measurement": "dose excreted as unchanged TPM", "setting": "predominantly renal elimination", "result": "50-80%"}, {"measurement": "reduction of clearance", "setting": "severe renal impairment (creatinine clearance <30 mL/min/1.73 m^2) vs normal", "result": 54, "unit": "%"}, {"measurement": "mean plasma concentration half-life", "setting": "single or multiple doses", "result": 21, "unit": "h"}, {"measurement": "relative bioavailability, effect of food", "setting": "tablet", "result": "not affected by food"}, {"measurement": "activity at the NMDA receptor", "setting": "NMDA receptor", "result": "no effect on the activity of N-methyl-D-aspartate (NMDA)"}, {"measurement": "activity at the kainate/AMPA receptor", "setting": "kainate/AMPA receptor", "result": "antagonizing the kainate/AMPA"}]}
